Assay [1] addresses Mitogen-activated protein kinase kinase kinase kinase 1 (Homo sapiens) (UniProt Q92918). Put plainly: Competitive binding affinity to MAP4K1 (unknown origin) at 10 uM in presence of ATP relative to control.
In assay [2] the target is T1, Serine/threonine-protein kinase Chk1 (Homo sapiens) (UniProt O14757).
T1 sequence (whole entry): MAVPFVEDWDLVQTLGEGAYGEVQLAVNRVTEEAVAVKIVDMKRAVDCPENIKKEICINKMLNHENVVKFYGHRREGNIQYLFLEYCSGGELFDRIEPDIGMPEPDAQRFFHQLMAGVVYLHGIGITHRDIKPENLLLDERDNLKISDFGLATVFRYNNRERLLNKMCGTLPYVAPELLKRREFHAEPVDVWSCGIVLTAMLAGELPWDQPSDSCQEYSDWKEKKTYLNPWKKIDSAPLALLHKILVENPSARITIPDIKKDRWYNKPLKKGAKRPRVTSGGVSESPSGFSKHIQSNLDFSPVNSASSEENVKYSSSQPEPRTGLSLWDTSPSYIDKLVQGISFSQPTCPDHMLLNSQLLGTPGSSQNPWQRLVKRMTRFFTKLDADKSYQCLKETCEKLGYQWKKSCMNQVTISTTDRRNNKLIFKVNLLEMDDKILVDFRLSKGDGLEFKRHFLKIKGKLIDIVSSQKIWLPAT
Kind of assay: Competitive binding affinity to CHEK1 (unknown origin) at 10 uM in presence of ATP relative to control.

For assay [3], the system named is Mast/stem cell growth factor receptor Kit (Homo sapiens), P10721 [V559D]. Put plainly: Competitive binding affinity to KIT V559D mutant (unknown origin) at 10 uM in presence of ATP relative to control.
Mast/stem cell growth factor receptor Kit (Homo sapiens), P10721 [V559D], sequence (P10721 whole entry V559D): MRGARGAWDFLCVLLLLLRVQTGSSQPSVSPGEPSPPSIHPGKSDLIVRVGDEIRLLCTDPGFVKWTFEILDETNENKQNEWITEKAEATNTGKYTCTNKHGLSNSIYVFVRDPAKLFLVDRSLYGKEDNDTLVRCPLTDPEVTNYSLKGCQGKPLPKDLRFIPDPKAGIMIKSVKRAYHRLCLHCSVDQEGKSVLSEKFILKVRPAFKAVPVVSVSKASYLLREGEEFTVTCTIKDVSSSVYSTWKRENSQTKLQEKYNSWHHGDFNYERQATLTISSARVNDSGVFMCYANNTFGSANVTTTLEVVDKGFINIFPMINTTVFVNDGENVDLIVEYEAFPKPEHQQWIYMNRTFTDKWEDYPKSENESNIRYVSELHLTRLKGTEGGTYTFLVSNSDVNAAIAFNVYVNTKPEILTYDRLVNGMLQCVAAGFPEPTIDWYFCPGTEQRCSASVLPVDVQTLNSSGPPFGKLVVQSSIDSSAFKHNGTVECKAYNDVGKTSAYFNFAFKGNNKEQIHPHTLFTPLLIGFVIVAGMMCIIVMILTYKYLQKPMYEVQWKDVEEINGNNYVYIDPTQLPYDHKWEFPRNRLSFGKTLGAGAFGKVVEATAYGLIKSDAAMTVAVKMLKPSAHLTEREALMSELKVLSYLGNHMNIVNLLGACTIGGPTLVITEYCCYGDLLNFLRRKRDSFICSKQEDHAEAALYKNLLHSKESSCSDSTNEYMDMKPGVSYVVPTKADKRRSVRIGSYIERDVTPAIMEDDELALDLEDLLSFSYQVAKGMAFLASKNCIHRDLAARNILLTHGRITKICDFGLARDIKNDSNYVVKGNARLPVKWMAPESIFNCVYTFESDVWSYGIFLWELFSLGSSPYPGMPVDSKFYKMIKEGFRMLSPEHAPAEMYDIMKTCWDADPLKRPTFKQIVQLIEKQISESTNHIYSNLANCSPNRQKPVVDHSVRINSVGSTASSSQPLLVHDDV
In assay [4] the target is Serine/threonine-protein kinase PLK1 (Homo sapiens) (UniProt P53350). Put plainly: Competitive binding affinity to PLK1 (unknown origin) at 10 uM in presence of ATP relative to control.
Serine/threonine-protein kinase PLK1 (Homo sapiens), sequence (P53350 whole entry): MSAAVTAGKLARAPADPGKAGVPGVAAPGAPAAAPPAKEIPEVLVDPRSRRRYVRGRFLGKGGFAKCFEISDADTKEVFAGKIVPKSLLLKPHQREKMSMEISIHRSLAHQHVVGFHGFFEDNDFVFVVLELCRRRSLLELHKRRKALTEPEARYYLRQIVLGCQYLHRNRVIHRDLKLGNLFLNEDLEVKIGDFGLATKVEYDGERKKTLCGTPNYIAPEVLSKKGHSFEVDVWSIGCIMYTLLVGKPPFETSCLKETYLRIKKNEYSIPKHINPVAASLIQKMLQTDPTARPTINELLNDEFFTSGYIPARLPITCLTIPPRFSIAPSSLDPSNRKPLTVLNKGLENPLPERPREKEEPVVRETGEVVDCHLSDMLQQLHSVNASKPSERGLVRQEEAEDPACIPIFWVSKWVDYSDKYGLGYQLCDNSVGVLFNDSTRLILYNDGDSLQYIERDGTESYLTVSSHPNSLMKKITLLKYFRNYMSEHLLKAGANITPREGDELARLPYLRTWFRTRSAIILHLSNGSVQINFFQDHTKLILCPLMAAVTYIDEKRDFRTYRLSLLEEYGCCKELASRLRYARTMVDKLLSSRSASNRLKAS
The target of assay [5] is T2, Myosin-IIIb (Homo sapiens) (UniProt Q8WXR4).
T2 sequence (whole entry): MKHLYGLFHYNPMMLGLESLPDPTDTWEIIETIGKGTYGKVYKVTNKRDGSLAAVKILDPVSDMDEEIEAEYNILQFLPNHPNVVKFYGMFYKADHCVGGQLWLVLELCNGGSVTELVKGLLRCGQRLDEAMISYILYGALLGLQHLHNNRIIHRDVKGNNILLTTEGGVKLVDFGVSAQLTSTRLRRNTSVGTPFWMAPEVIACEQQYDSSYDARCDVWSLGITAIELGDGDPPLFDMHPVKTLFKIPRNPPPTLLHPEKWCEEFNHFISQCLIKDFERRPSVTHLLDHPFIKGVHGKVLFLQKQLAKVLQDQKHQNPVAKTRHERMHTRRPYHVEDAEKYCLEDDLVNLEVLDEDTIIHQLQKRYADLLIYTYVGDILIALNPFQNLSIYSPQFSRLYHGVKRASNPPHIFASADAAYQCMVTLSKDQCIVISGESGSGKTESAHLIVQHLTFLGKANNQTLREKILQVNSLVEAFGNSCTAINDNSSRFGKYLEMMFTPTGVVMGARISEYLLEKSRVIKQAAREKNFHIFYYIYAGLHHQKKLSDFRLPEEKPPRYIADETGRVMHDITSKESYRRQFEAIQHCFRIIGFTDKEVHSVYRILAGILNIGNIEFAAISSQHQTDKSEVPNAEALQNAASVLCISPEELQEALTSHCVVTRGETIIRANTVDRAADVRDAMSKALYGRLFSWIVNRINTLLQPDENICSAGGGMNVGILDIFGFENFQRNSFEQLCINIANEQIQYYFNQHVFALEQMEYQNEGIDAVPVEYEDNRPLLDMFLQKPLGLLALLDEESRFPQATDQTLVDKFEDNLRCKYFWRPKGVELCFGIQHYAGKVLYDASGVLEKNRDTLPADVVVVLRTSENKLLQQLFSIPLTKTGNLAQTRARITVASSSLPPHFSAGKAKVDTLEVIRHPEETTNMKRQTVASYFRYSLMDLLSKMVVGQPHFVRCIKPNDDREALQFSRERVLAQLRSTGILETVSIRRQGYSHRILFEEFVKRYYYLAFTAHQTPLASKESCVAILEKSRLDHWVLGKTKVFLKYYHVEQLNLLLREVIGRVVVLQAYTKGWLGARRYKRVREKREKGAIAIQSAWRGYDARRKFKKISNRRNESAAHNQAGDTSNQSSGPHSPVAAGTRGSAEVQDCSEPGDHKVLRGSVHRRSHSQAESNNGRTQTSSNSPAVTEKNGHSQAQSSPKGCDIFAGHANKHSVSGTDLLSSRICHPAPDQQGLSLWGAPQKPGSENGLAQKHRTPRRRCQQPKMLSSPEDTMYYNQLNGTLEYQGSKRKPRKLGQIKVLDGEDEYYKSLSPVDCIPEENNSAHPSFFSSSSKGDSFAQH
Put plainly: Competitive binding affinity to MYO3B (unknown origin) at 10 uM in presence of ATP relative to control.

Assay [6] deals with T3, Serine/threonine-protein kinase DCLK1 (Homo sapiens) (UniProt O15075).
T3 sequence (whole entry): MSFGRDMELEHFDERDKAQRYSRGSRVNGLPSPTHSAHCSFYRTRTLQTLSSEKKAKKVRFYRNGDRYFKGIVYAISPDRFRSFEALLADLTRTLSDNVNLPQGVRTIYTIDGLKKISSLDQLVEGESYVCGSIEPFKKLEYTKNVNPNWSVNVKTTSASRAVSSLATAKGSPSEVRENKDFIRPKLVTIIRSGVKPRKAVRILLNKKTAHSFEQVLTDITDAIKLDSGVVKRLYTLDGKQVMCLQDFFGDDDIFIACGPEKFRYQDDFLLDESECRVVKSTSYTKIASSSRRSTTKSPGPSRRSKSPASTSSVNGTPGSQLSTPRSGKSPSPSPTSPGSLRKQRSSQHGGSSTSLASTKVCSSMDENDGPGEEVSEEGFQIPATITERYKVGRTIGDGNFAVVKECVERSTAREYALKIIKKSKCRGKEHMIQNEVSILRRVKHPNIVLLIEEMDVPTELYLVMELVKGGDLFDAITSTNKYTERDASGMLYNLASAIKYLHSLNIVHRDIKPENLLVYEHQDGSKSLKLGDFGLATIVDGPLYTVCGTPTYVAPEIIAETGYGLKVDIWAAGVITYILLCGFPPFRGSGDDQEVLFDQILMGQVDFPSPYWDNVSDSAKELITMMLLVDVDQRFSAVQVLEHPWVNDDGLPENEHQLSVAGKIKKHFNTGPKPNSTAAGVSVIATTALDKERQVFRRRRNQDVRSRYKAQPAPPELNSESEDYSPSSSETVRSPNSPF
Put plainly: Competitive binding affinity to DCAMKL1 (unknown origin) at 10 uM in presence of ATP relative to control.

SMILES strings stand for the structures. Where only a bound is given, the exact number is not on record here.

Mitogen-activated protein kinase kinase kinase kinase 1 (Homo sapiens), sequence (Q92918 whole entry, looked up): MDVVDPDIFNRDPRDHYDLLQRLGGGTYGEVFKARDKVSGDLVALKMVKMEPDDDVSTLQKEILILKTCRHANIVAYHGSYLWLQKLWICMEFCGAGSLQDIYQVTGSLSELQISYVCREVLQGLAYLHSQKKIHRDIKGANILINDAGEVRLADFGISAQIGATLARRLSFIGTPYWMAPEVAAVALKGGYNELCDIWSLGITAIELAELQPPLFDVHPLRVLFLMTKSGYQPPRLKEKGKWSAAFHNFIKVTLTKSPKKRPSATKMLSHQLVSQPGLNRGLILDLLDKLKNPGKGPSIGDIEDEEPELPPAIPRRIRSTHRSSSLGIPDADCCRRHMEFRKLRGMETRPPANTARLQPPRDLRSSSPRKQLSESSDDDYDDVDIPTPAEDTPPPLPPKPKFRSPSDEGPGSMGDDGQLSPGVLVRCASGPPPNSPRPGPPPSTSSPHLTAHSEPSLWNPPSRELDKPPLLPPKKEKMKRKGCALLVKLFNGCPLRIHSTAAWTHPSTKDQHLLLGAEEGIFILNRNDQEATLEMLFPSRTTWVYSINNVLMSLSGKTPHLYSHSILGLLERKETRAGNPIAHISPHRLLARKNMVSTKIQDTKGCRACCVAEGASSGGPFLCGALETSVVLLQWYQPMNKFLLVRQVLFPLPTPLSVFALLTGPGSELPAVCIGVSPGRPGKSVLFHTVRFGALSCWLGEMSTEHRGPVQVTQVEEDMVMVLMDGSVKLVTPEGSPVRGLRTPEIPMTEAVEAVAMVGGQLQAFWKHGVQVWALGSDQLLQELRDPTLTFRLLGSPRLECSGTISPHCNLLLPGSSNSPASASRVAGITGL

Usually inhibition stands for the share of the control response that was lost under treatment. For the compound `O[C@H]1CC[C@H](Nc2nccc(-n3ccc4ccccc43)n2)CC1`, the inhibition is below 50% in assay [1]; below 50% in assay [2]; 73% in assay [3]; below 50% in assay [4]; below 50% in assay [5]; below 50% in assay [6].
For the compound `O[C@H]1CC[C@H](Nc2nccc(-n3nnc4ccccc43)n2)CC1`, the inhibition in assay [1] is below 50%; in assay [2] it was below 50%; in assay [3] it was 91%; in assay [4] it was below 50%; in assay [5], below 50%; in assay [6] it was 66%.
In the case of `O[C@H]1CC[C@H](Nc2nccc(-n3ncc4ccccc43)n2)CC1`, the inhibition in assay [1] is below 50%; in assay [2], below 50%; in assay [3], 92%; in assay [4] it was below 50%; in assay [5] it was below 50%; in assay [6] it was below 50%.
In the case of `O[C@H]1CC[C@H](Nc2nccc(-c3n[nH]c4ccccc34)n2)CC1`, the results for the inhibition in assay [1], in assay [3] and in assay [4] were 97%, 99% and below 50%, respectively.

These data come from ChEMBL document CHEMBL2424622, “Development of amino-pyrimidine inhibitors of c-Jun N-terminal kinase (JNK): kinase profiling guided optimization of a 1,2,3-benzotriazole lead” (Bioorg Med Chem Lett, 2013).
